Laboratory results reported in PubChem BioAssay AID651914 (NMMLSC, 2012).

tested on: AM2.2-GPR32 FAP cells, fluorogen binding, flow cytometry MCF; experiment: fluorogen binding to FAP-tagged GPR32, dose response, counter-screen for beta2AR agonist internalization project, AM2.2 cells, flow cytometry, powder set 5 (AID 651914)

Q: `Cc1cccc(C(=O)Nc2ccc(S(=O)(=O)N3CCCCC3C)cc2)c1` (stereo not drawn) was tested. Which EC50 did it give?
A: The EC50 was 2900 nM.

Q: Which EC50 does the source give for `CN(CC(=O)N1CCN(c2ccc(F)cc2)CC1)S(=O)(=O)c1ccc(Br)cc1` here?
A: Its EC50 is 410 nM.

Q: With `CCC(=O)Nc1ccc(S(=O)(=O)N2CCCCC2CC)cc1` (stereo not drawn) as the molecule, how does the EC50 read?
A: Its EC50 is 7.5 nM.
